Here are results for 20 compounds from patent US8940898B2, “Piperidinyl alkyne orexin receptor antagonists” (Merck Sharp & Dohme Corp., priority 2011, dated 2015).

One test addresses T1, human orexin-2 receptor (Homo sapiens, UniProt O43614).
T1 construct: expressed in transfected cells; host or cells: CHO cells (membranes)
T1 sequence (O43614 1-444): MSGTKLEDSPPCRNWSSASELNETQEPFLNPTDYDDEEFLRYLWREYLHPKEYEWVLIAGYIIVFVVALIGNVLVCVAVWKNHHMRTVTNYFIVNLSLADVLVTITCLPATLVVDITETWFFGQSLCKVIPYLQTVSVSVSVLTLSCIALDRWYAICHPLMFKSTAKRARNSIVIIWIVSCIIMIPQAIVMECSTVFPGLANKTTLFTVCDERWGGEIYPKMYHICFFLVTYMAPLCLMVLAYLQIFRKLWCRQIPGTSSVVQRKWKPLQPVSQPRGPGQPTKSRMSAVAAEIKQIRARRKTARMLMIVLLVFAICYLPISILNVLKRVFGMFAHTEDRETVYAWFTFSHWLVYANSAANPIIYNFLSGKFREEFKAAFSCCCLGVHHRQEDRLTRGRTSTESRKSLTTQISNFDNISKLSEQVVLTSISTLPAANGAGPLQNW
The test is described as follows: radioligand binding assay, OX2 receptor (hOX2 Bind hKi). As to conditions: membranes from CHO cells expressing the OX2 receptor. As to the method: The utility of the compounds in accordance with the present invention as orexin receptor OX1R and/or OX2R antagonists may be readily determined without undue experimentation by methodology well known in the art, including the “FLIPR Ca^2+ Flux Assay” (Okumura et al., Biochem. Biophys. Res. Comm. 280:976-981, 2001). In a typical experiment the OX1 and OX2 receptor antagonistic activity of the compounds of the present invention was determined in accordance with the following experimental method. For intracellular calcium measurements, Chinese hamster ovary (CHO) cells expressing the rat orexin-1 receptor or the human orexin-2 receptor, are grown in Iscove's modified DMEM containing 2 mM L-glutamine, […], 1% hypoxanthine-thymidine supplement, 100 U/ml penicillin, 100 μg/ml streptomycin and 10% heat-inactivated fetal calf serum (FCS). The cells are seeded at 20,000 cells/well into Becton-Dickinson black 384-well clear bottom sterile plates coated with poly-D-lysine. All reagents were from GIBCO-Invitrogen Corp. The seeded plates are incubated overnight at 37° C. and 5% CO2. Ala-6,12 human orexin-A as the agonist is prepared as a 1 mM stock solution in 1% bovine serum albumin (BSA) and diluted in assay buffer (HBSS containing 20 mM HEPES, 0.1% BSA and 2.5 mM probenecid, pH7.4) for use in the assay at a final concentration of 70 pM. Test compounds are prepared as 10 mM stock solution in DMSO, then diluted in 384-well plates, first in DMSO, then assay buffer. On the day of the assay, cells are washed 3 times with 100 μl assay buffer and then incubated for 60 min (37° C., 5% CO2) in 60 μl assay buffer containing 1 μM Fluo-4AM ester, 0.02% pluronic acid, and 1% BSA. The dye loading solution is then aspirated and cells are washed 3 times with 100 μl assay buffer. 30 μl of that same buffer is left in each well. Within the Fluorescent Imaging Plate Reader (FLIPR, Molecular Devices), test compounds are added to the plate in a volume of 25 μl, incubated for 5 min and finally 25 μl of agonist is added. Fluorescence is measured for each well at 1 second intervals for 5 minutes and the height of each fluorescence peak is compared to the height of the fluorescence peak induced by […] Ala-6,12 orexin-A with buffer in place of antagonist. For each antagonist, IC50 value (the concentration of compound needed to inhibit 50% of the agonist response) is determined. Alternatively, compound potency can be assessed by a radioligand binding assay (described in Bergman et. al. Bioorg. Med. Chem. Lett. 2008, 18, 1425-1430) in which the inhibition constant (Ki) is determined in membranes prepared from CHO cells expressing either the OX1 or OX2 receptor. The intrinsic orexin receptor antagonist activity of a compound which may be used in the present invention may be determined by these assays. The following tables show representative data for the compounds of the Examples as orexin receptor antagonists as determined by the foregoing assays wherein the hOX2 Ki is a measure of the ability of the test compound to inhibit the action of the human orexin-2 receptor and the hOX1R is a measure of the ability of the test compound to inhibit the action of the rat orexin-1 receptor.

The target of a further test is T2, hOX1 (orexin-1 receptor) (Homo sapiens, UniProt O43613).
T2 construct: expressed in transfected cells; host or cells: CHO cells (membranes)
T2 sequence (O43613 1-425): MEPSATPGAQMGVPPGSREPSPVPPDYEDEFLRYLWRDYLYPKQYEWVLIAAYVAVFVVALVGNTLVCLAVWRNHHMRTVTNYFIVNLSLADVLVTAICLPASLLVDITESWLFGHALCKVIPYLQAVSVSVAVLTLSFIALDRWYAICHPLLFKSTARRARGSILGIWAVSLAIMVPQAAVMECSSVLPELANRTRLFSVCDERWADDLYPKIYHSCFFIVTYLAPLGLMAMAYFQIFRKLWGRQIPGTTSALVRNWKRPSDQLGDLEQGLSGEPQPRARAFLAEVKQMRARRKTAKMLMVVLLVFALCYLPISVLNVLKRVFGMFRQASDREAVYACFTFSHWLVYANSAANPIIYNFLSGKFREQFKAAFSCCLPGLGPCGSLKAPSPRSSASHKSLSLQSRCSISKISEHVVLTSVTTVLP
The test is described as follows: radioligand binding assay, OX1 receptor (hOX1 Bind hKi). Conditions: membranes from CHO cells expressing the OX1 receptor.

As to `C[C@@H]1CCC(C#Cc2ccccn2)CN1C(=O)c1ccccc1-n1nccn1` (stereo in doubt) [Example 1, [(2R,5R)-2-Methyl-5-(pyridin-2-ylethynyl)piperidin-1-yl][2-(2H-1,2,3-triazol-2-yl)phenyl]methanone], the results for the Ki on human orexin-2 receptor and at hOX1 (orexin-1 receptor) were 11 nM and 27 nM, respectively.

`C[C@@H]1CC[C@@H](C#Cc2ccncc2)CN1C(=O)c1ccccc1-n1nccn1` [Example 2, 4-{[(3S,6R)-6-methyl-1-{[2-(2H-1,2,3-triazol-2-yl)phenyl]carbonyl}piperidin-3-yl]ethynyl}pyridine]: the Ki at human orexin-2 receptor was found to be 41 nM; at hOX1 (orexin-1 receptor), 107 nM.

Turning to `C[C@@H]1CC[C@@H](C#Cc2cccnc2)CN1C(=O)c1ccccc1-n1nccn1` [Example 3, 3-{[(3S,6R)-6-methyl-1-{[2-(2H-1,2,3-triazol-2-yl)phenyl]carbonyl}piperidin-3-yl]ethynyl}pyridine], the Ki was 7 nM at human orexin-2 receptor and 26 nM on hOX1 (orexin-1 receptor).

With `C[C@@H]1CC[C@@H](C#Cc2cccnc2O)CN1C(=O)c1ccccc1-n1nccn1` [Example 4, 3-{[(3S,6R)-6-methyl-1-{[2-(2H-1,2,3-triazol-2-yl)phenyl]carbonyl}piperidin-3-yl]ethynyl}pyridin-2-ol], the Ki on human orexin-2 receptor and at hOX1 (orexin-1 receptor) was 24 nM each time.

On to `C[C@@H]1CC[C@@H](C#Cc2cnccc2O)CN1C(=O)c1ccccc1-n1nccn1` [Example 5, 3-{[(3S,6R)-6-methyl-1-{[2-(2H-1,2,3-triazol-2-yl)phenyl]carbonyl}piperidin-3-yl]ethynyl}pyridin-4-ol], for which the Ki was 7.5 nM at human orexin-2 receptor and 866 nM on hOX1 (orexin-1 receptor).

As to `C[C@@H]1CC[C@@H](C#Cc2ccccc2CO)CN1C(=O)c1ccccc1-n1nccn1` [Example 6, (2-{[(3S,6R)-6-methyl-1-{[2-(2H-1,2,3-triazol-2-yl)phenyl]carbonyl}piperidin-3-yl]ethynyl}phenyl)methanol], the figures for the Ki on human orexin-2 receptor and at hOX1 (orexin-1 receptor) were 0.53 nM and 0.56 nM, respectively.

On to `C[C@@H]1CC[C@@H](C#Cc2ccc(CO)nc2)CN1C(=O)c1ccccc1-n1nccn1` [Example 7, (5-{[(3S,6R)-6-methyl-1-{[2-(2H-1,2,3-triazol-2-yl)phenyl]carbonyl}piperidin-3-yl]ethynyl}pyridin-2-yl)methanol], for which the Ki is approximately 150 nM at human orexin-2 receptor and 339 nM on hOX1 (orexin-1 receptor).

`C[C@@H]1CC[C@@H](C#Cc2ccc(CO)cn2)CN1C(=O)c1ccccc1-n1nccn1` [Example 8, (6-{[(3S,6R)-6-methyl-1-{[2-(2H-1,2,3-triazol-2-yl)phenyl]carbonyl}piperidin-3-yl]ethynyl}pyridin-3-yl)methanol]: the values for the Ki on human orexin-2 receptor and at hOX1 (orexin-1 receptor) were 130 nM and 211 nM, respectively.

Regarding `C[C@@H]1CC[C@@H](C#Cc2cccc(CO)n2)CN1C(=O)c1ccccc1-n1nccn1` [Example 9, (6-{[(3S,6R)-6-methyl-1-{[2-(2H-1,2,3-triazol-2-yl)phenyl]carbonyl}piperidin-3-yl]ethynyl}pyridin-2-yl)methanol], the inhibitory constant (Ki) on human orexin-2 receptor stood at 5.6 nM; at hOX1 (orexin-1 receptor), 18 nM.

Turning to `C[C@@H]1CC[C@@H](C#Cc2cc(CO)ccn2)CN1C(=O)c1ccccc1-n1nccn1` [Example 10, (2-{[(3S,6R)-6-methyl-1-{[2-(2H-1,2,3-triazol-2-yl)phenyl]carbonyl}piperidin-3-yl]ethynyl}pyridin-4-yl)methanol], the Ki on human orexin-2 receptor came to 42 nM; on hOX1 (orexin-1 receptor), 76 nM.

With `C[C@@H]1CC[C@@H](C#Cc2cncc(CO)c2)CN1C(=O)c1ccccc1-n1nccn1` [Example 11, (5-{[(3S,6R)-6-methyl-1-{[2-(2H-1,2,3-triazol-2-yl)phenyl]carbonyl}piperidin-3-yl]ethynyl}pyridin-3-yl)methanol], the Ki on human orexin-2 receptor is 32 nM; at hOX1 (orexin-1 receptor) it was 108 nM.

Turning to `C[C@@H]1CC[C@@H](C#Cc2ccnc(CO)c2)CN1C(=O)c1ccccc1-n1nccn1` [Example 12, (4-{[(3S,6R)-6-methyl-1-{[2-(2H-1,2,3-triazol-2-yl)phenyl]carbonyl}piperidin-3-yl]ethynyl}pyridin-2-yl)methanol], the inhibition constant (Ki) at human orexin-2 receptor is 25 nM; at hOX1 (orexin-1 receptor), 75 nM.

Turning to `Cc1ccc(-n2nccn2)c(C(=O)N2CCCCC2C#Cc2ccccc2)c1` (stereo not shown) [Example 14, [5-Methyl-2-(2H-1,2,3-triazol-2-yl)phenyl][2-(phenylethynyl)piperidin-1-yl]methanone], the values for the Ki on human orexin-2 receptor and at hOX1 (orexin-1 receptor) were 441 nM and 357 nM, respectively.

For `Cc1ccc(-n2nccn2)c(C(=O)N2CCCCC2C#Cc2ccc(F)cn2)c1` (stereo not shown) [Example 15, 5-fluoro-2-[(1-{[5-methyl-2-(2H-1,2,3-triazol-2-yl)phenyl]carbonyl}piperidin-2-yl)ethynyl]pyridine], the Ki at human orexin-2 receptor is 1000 nM; at hOX1 (orexin-1 receptor), more than 2540 nM.

As to `Cc1ccc(-n2nccn2)c(C(=O)N2CCCCC2C#Cc2ccc(F)cc2)c1` (stereo not shown) [Example 16, 2-[(4-fluorophenyl)ethynyl]-1-{[5-methyl-2-(2H-1,2,3-triazol-2-yl)phenyl]carbonyl}piperidine], the Ki at human orexin-2 receptor was determined as 160 nM; at hOX1 (orexin-1 receptor) it was 248 nM.

In the case of `Cc1ccc(-n2nccn2)c(C(=O)N2CCCCC2C#Cc2ccc3ccccc3n2)c1` (stereo not shown) [Example 17, 2-[(1-{[5-methyl-2-(2H-1,2,3-triazol-2-yl)phenyl]carbonyl)piperidin-2-yl)ethynyl]quinoline], the Ki was more than 4460 nM on human orexin-2 receptor and 332 nM on hOX1 (orexin-1 receptor).

Consider `Cc1ccc(-n2nccn2)c(C(=O)N2CCCCC2C#Cc2cnc3ccccc3c2)c1` (stereo not shown) [Example 18, 3-[(1-{[5-methyl-2-(2H-1,2,3-triazol-2-yl)phenyl]carbonyl}piperidin-2-yl)ethynyl]quinoline], for which the Ki on human orexin-2 receptor was more than 4460 nM; on hOX1 (orexin-1 receptor) it was more than 476 nM.

As for `Cc1ccc(-n2nccn2)c(C(=O)N2CCCCC2C#Cc2ccc3ccccc3c2)c1` (stereo not shown) [Example 19, 1-{[5-methyl-2-(2H-1,2,3-triazol-2-yl)phenyl]carbonyl}-2-(naphthalen-2-ylethynyl)piperidine], the inhibitory constant (Ki) on human orexin-2 receptor is 2830 nM; on hOX1 (orexin-1 receptor), more than 476 nM.

Turning to `Cc1nc(C(=O)N2CCCCC2C#Cc2ccccc2)c(-c2ccccc2)s1` (stereo not shown) [Example 20, (2-Methyl-5-phenyl-1,3-thiazol-4-yl) [2-(phenylethynyl)piperidin-1-yl]methanone], the inhibition constant Ki was more than 1170 nM on human orexin-2 receptor and 257 nM on hOX1 (orexin-1 receptor).

As for `Cc1nc(C(=O)N2CCCCC2C#Cc2ccc3ccccc3c2)c(-c2ccccc2)s1` (stereo not shown) [Example 21, 1-[(2-methyl-5-phenyl-1,3-thiazol-4-yl)carbonyl]-2-(naphthalen-2-ylethynyl)piperidine], the Ki was more than 754 nM on human orexin-2 receptor and more than 1600 nM on hOX1 (orexin-1 receptor).

As usually defined, the Ki is a measure of affinity in units of concentration, obtained from inhibition or displacement. The low end stands for tighter binding, the high end for weaker binding.
